Patent US20260248799A1, “COMBINATIONS OF RETINALDEHYDE DEHYDROGENASE 1 (RALDH1) INHIBITORS AND IMMUNOSTIMULATORS AND METHODS USING SAME” (The Trustees of the University of Pennsylvania, priority 2023, published 2026)
pIC50: −log10 of the molar value.

Legend:
[1] = tested on: Huh7 tumors; experiment: Huh7 tumors in NU/J mice; format: in vivo, mouse; conditions: Huh7
Procedure: FIGS. 26A-26H: Raldh1-INH suppresses HCC growth by altering macrophage functions. FIG. 26A: Huh7 tumor-bearing NU/J mice were treated with C86 (i.p, 10 mg/kg) every day starting when tumor size was approximately 50 mm^3. Tumor volume was measured every 2 days. […] Three or more independent experiments were performed with at least three replicates per experimental group. Unpaired t test, two-tailed. FIG. 26B: AldeRed assay at endpoint on Huh7 tumor treated as described in FIG. 26A. […] Three or more independent experiments were performed with at least three replicates per experimental group. Unpaired t test, two-tailed. FIG. 26C: Huh7 tumor-bearing nude mice were treated with different dose of C86 every day. Tumor volume was measured every 2-3 days. […] Two independent experiments were performed with at least three replicates per experimental group. Unpaired t test, two-tailed. FIG. 26D: Body weight measured every 3-5 days for the experiment outlined in FIG. 26C. FIG. 26E: Parental Huh7 or RALDH1-KO Huh7 cells were implanted subcutaneously into NU/J mice and treated with C86 (i.p, 10 mg/kg) or vehicle (control) every day. […] Three or more independent experiments were performed with at least three replicates per experimental group. Unpaired t test, two-tailed. FIG. 26F: Huh7 tumor-bearing NU/J mice were treated with clodronate liposomes (CloLipo) and/or C86. […] Two independent experiments were performed with at least three replicates per experimental group. Unpaired t test, two-tailed. FIG. 26G: Murine Hepa 1-6 tumors were implanted subcutaneously into C57BL6/J WT mice or LyMCre:RosadnRAR mice. Expression of the dominant negative RAR in myeloid cells slows tumor growth. Two independent experiments were performed with at least three replicates per experimental group. Unpaired t test, two-tailed. FIG. 26H: Huh7 cells were implanted subcutaneously into NU/J mice. When tumor size reached about 50 mm^3, mice were intraperitoneally injected vehicle (control) or C86 daily with or without BMS493 treatment intratumorally every 3 days. BMS493 and C86 suppress tumor growth with the combination showing higher suppression than monotherapy. *, P<0.05; **, P<0.01; ***, P<0.001; n.s., not significant.
Cultured Huh7, Huh1, Hepa 1-6, Hep55, and FS (as indicated in figure legends) tumor cells were detached using 0.25% trypsin (Gibco, catalog #25200056), washed once with 1×PBS, and counted before implantation. 3~6×10^6 tumor cells were implanted subcutaneously (s.c.) into shaved flanks of recipient mice. Tumor dimensions were measured using a caliper starting at the day indicated in the accompanying figure legend and every two to three days thereafter; volume was calculated by using formula Length*Width^2/2. Tumor volumes of 2,000 mm^3, tumor length of 2 cm or tumor ulceration were used as endpoints for survival analyses.
Compound-86, 97 and 99 powder was dissolved in 20% HPβCD saline (2-Hydroxypropyl)-[…]). Drug was administered i.p. or p.o. starting when tumor volume reached 50-150 mm^3 and repeated every day.

[2] = tested on: macrophages from primary human monocytes; experiment: Numbers of live monocyte-derived macrophages in vitro; format: cell-based; conditions: C86 treated TCM or BMS493; three days
Procedure: (§1) FIGS. 24A-24E: Raldh1-INH blocks tumor supportive functions of monocytes and macrophages. FIG. 24A: Circulating primary human monocytes were collected from donors and cultured with MCSF (50 ng/mL) to generate macrophages. On day 3 of these cultures, DMSO or RA (100 nmol/L) was added to generate control monocyte-derived macrophages (Control-MoDM) or RA monocyte-derived macrophages (RA-MoDM), respectively. On day 7 of these cultures, macrophages were collected for each well after washing with 1×PBS, mixed with Huh7 cells at approximately 50:50 ratio, and the mix injected into the flanks of NU/J mice. Huh7 tumors cells that were not mixed with any macrophages before flank injection served as an additional control. Tumor volume was measured every 2 days (left graph). 19 days after tumor injection, mice were sacrificed and tumor weight (right graph) was measured. […] Three or more independent experiments were performed with at least three replicates per experimental group. Unpaired t test, two-tailed. […] Tumor growth was monitored daily (left graph). 13 days after tumor cell transplantation, mice were sacrificed and tumor weight measured (right graph). […] Three days later, cells were harvested, counted, and stained with PI for FCS analyses. […] Cell proliferation was measured by counting live cell numbers (y-axis). […] 72 hours later, the cells were washed, counted, and analyzed by FCS. […]

[3] = tested on: human HCC lines; experiment: Human HCC lines cocultured with pretreated macrophages; format: cell-based; conditions: macrophages exposed to BMS493
Procedure: as §1

[4] = tested on: SNU398 human HCC cells; experiment: AldeRed (Aldefluor) assay in SNU398 cells; format: cell-based
Procedure: The AldeRed assay (EMD Millipore) was performed according to manufacturer's instructions to identify cells with ALDH activity. In brief, single-cell suspensions of Huh7, Huh1, SNU449, SNU398, HEP3B, PLC, Hepa 1-6, Hep55, and AL458A cultured cells or single-cell suspension generated from enzymatic digestion of tumors generated from transplantation of these cells in mice (as indicated in figure legends) were incubated with a fluorescent and non-toxic ALDH substrate (AldeRed 588-A); the fluorescent product accumulates in cells proportional to their ALDH activity. The amount of fluorescence produced is measured by flow cytometry. The ALDH inhibitor diethylaminobenzaldehyde (DEAB, provided with the AldeRed assay kit) was used as a negative control for background fluorescence assessment.
(§2) The Aldefluor assay has been used to identify and isolate cells with high ALDH activities. This assay is based on the principle that ALDH can convert the ALDH-substrate, Bodipy-aminoacetaldehyde (BAAA) into Bodipy-aminoacetate (BAA) which is retained inside the cells. BAAA is uncharged and can diffuse freely into intact viable cells, however BAA cannot cross the membrane due to its net negative charge, which makes remain in the cells and the assay buffer prevents efflux of the BAA from the cells. Therefore, the amount of BAA fluorescence in cells is proportional to ALDH activity and can be measured using a flow cytometer. A specific inhibitor of ALDH, diethylaminobenzaldehyde (DEAB), is used for background fluorescence control.

[5] = target: T1, hALDHIA1 (Homo sapiens, UniProt P00352); experiment: hALDH1A1 inhibition (Table 4); format: biochemical
T1 sequence (P00352 1-501): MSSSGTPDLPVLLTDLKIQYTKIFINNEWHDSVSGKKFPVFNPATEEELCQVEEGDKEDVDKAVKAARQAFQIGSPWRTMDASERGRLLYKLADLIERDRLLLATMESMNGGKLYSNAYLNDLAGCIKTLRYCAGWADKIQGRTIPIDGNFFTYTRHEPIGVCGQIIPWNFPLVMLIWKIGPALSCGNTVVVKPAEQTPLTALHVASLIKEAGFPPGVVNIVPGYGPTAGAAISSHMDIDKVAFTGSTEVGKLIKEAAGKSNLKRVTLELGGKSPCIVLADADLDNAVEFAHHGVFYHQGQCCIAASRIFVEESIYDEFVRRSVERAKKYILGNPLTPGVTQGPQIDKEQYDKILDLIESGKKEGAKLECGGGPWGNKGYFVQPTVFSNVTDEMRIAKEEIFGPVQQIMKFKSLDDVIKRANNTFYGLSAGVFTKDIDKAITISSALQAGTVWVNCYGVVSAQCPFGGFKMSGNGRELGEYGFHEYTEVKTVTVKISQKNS
Procedure: (§3) Compounds ALDH inhibitory effects of C-9125, C-9163, and C-9175 were evaluated in a number of cell lines, including MiaPaCa2 and OV90 cell lines, utilizing the AldeFlour assay described elsewhere herein (Table 4).

[6] = tested on: MiaPaCa2 cells; experiment: AldeFlour assay in MiaPaCa2 cells; format: cell-based; conditions: Homo sapiens, MIA PaCa-2, read-out: MiaPaCa cells IC50
Text: as §2, §3

[7] = tested on: SNU398 (human HCC cell line); experiment: LC-MS for ATRA in SNU398 cells; conditions: C86 100 nmol/L, WIN18446 1,000 nmol/L, 24 hours
[8] = tested on: Hepa1-6 (mouse HCC cell line); experiment: LC-MS for ATRA in Hepa1-6 cells; conditions: 1,000 nmol/L, 24 hours

Structure (SMILES): CC1(C)CC=C(C#Cc2ccccc2)c2cc(/C=C/c3ccc(C(=O)O)cc3)ccc21 [BMS 493, (E)-4-(2-(5,5-dimethyl-8-(phenylethynyl)-5,6-dihydronaphthalen-2-yl)vinyl)benzoic acid, reference compound]
- tumor mass and volume ([1]; intraperitoneal administration, compared to a control (FIGS. 12B-12C)): significant reduction in tumor mass and volume
- RA and tumor-CM induced increase in macrophage numbers [2]: reversed
- increase of tumor cell numbers by RA pre-treated macrophages [3]: this effect was reversed

Structure (SMILES): N#CC1(c2ccccc2)CCN(c2c(C(=O)N[C@H]3CC[C@H](O)CC3)cnc3ccc(F)cc23)CC1 [Compound C-97, 4-(4-cyano-4-phenylpiperidin-1-yl)-6-fluoro-N-((1r,4r)-4-hydroxycyclohexyl)quinoline-3-carboxamide]
- ALDH activity compared to the DMSO control ([4]; SNU398, 1 nM): partial inhibition
- concentration giving essentially complete inhibition of ALDH ([4]; SNU398, Aldefluor assay): ≥ 10 nM
- tumor mass and volume ([1]; C-86 versus C-97 (FIGS. 17A-17B)): significant reduction in tumor mass and volume
- tumor suppressive activity relative to C-86 ([1]; FIGS. 17A-17B): enhanced tumor suppressive activity as compared to C-86

Structure (SMILES): N#CC1(c2ccc(-c3c(C(=O)N[C@H]4CC[C@H](O)CC4)cnc4ccc(F)cc34)cc2)CC1 [Compound C-9125, 4-(4-(1-cyanocyclopropyl)phenyl)-6-fluoro-N-((1r,4r)-4-hydroxycyclohexyl)quinoline-3-carboxamide]
- pIC50 [5]: 8.15
- pIC50 [6]: 6.89

Structure (SMILES): N#CC1(c2ccc(-c3c(C(=O)Nc4cnn(CCO)c4)cnc4ccc(F)cc34)cc2)CC1 [Compound C-9163, 4-(4-(1-cyanocyclopropyl)phenyl)-6-fluoro-N-(1-(2-hydroxyethyl)-1H-pyrazol-4-yl)quinoline-3-carboxamide]
- pIC50 [5]: 8.40
- pIC50 [6]: 7.03

Structure (SMILES): N#CC1(c2ccccc2)CCN(c2c(C(=O)Nc3cnn(CCO)c3)cnc3ccc(F)cc23)CC1 [Compound C-9175, 4-(4-cyano-4-phenylpiperidin-1-yl)-6-fluoro-N-(1-(2-hydroxyethyl)-1H-pyrazol-4-yl)quinoline-3-carboxamide]
- pIC50 [5]: 8.22
- pIC50 [6]: 7.92

Structure (SMILES): O=C(NCCCCCCCCNC(=O)C(Cl)Cl)C(Cl)Cl [WIN18446]
- ATRA by LC-MS (RALDH1 inhibition) [7]: inhibits both murine and human RALDH1
- ATRA by LC-MS (RALDH1 inhibition) [8]: inhibits both murine and human RALDH1
